Reference: publication PMC11991097 (2025)

Key:
[1] = system: Del-1 (DNA, aptamer) ACCGACCGTGCTGGACTCTAAGGTGGAGTTATAGGCTTACTGCCACGTCAGTATGAGCGAGCGTTGCG; assay: magnetic bead elution, ssDNA absorbance, nonlinear fit; details: PBS screening buffer; room temperature, 2 h; Del fixed 50 μg/mL, aptamer varied 50–500 nM; capture strand P displaced
[2] = system: Del-1 (DNA, aptamer) ACCGACCGTGCTGGACTCTAAGGTGGAGTTATAGGCTTACTGCCACGTCAGTATGAGCGAGCGTTGCG; assay: magnetic bead elution; AuNP/PDDA colorimetry; details: 50 μg/mL (beads), 2 μg/mL (colorimetry, MOPS); elution much lower than Del; ΔA650/A520 about 0.4

SMILES	Kd [1]	binding [2]
CC1(C)[C@H](C(=O)O[C@H](C#N)c2cccc(Oc3ccccc3)c2)[C@@H]1C=C(Br)Br	82.90 ± 6.272 nM	–
CC1(C)C(C(=O)OC(C#N)c2cccc(Oc3ccccc3)c2)C1(C)C (stereo not drawn)	–	weak
CC1(C)C(C=C(Cl)Cl)C1C(=O)OC(C#N)c1cccc(Oc2ccccc2)c1 (stereo not drawn)	–	weak
